In article PMC12346692, “SUL-150 Limits Vascular Remodeling and Ventricular Failure in Pulmonary Arterial Hypertension” (International Journal of Molecular Sciences, 2025):

Tested on: PGC1α, mtTFA, PINK1, Parkin
Experiment: Immunoblotting of right ventricle for mitogenesis and mitophagy markers
Assay type: in vivo, rat
Settings: PAH rats, ~6 mg·kg^−1·day^−1 i.p. minipump, 28 days; result in words
Protocol: Protein lysates were prepared from the right ventricle using RIPA buffer (ThermoFisher, Waltham, MA, USA) and supplemented with 0.5% proteinase inhibitor cocktail (Sigma-Aldrich, St. Louis, MO, USA) and 0.5% Halt™ phosphatase inhibitor (ThermoFisher, Waltham, MA, USA). […] Twenty micrograms of total protein per sample was loaded on mini-PROTEAN precast gradient gels (4–15% denaturing SDS–polyacrylamide gel; Bio-Rad, Hercules, CA, USA), separated by gel electrophoresis, and blotted onto nitrocellulose membrane using the Trans-Blot turbo system (Bio-Rad, Hercules, CA, USA) according to standard protocols. Blots were blocked with 5% bovine serum albumin in 20 mM Tris-HCl (pH 7.4) at room temperature for 30 min and incubated at 4 °C overnight with primary antibodies to mtTFA (sc-166965, Santa Cruz Biotechnology, Dallas, TX, USA), PGC1α (NBP1-04676, Bio-Techne, Abingdon, UK), PINK1 (BC100-494, Bio-Techne, Abingdon, UK), Parkin (sc-32282, Santa Cruz Biotechnology, Dallas, TX, USA), or Tubulin (Sigma-Aldrich, St. Louis, MO, USA), all at a dilution of 1:500. Alkaline phosphatase-conjugated secondary antibodies and NBT/BCIP (Bio-Rad, VA, USA) were used for detection. Densitometric analysis was performed using Totallab 120 (Nonlinear Dynamics, Newcastle upon Tyne, UK).

In the case of `Cc1c(C)c2c(c(C)c1O)CC[C@](C)(C(=O)N1CCNCC1)O2` [SUL-150, (R)-(6-hydroxy-2,5,7,8-tetramethylchroman-2-yl)(piperazin-1-yl)methanone], the “right ventricular protein expression of PGC1α and mtTFA” value is reported as “did not alter” and the “right ventricular protein expression of PINK1 and Parkin” value is reported as “maintained the expression”.
